In the Deep4Chem optical property database one finds emission maximum data, which are given here for 44 compounds.

“And” between values parts separate entries of the source, which are not always exact repeats. Equal entries are not always repeated.

The nature of this data set: solvent given as SMILES.

Turning to `CC1=c2ccccc2=[N+]2C1=Cc1c3ccccc3c(-c3[nH]c4ccccc4c3C)n1[B-]2(F)F`, the emission maximum (in ClCCl) is listed as 648 nm.

As for `O=[N+]([O-])c1ccc(-c2cn3ccc[n+]3[n-]2)cc1`, the emission maximum (in ClCCl) came out at 556 nm.

On to `COc1ccc(-c2ccc3c(c2)[Si](C)(C)c2cc(-c4ccc(OC)cc4)ccc2C=C3)cc1`, for which the emission maximum (in ClCCl) is listed as 424 nm.

`CC(C)(C)Nc1oc(C=Cc2ccccc2)c(C(=O)OC(C)(C)C)c1C(=O)OC(C)(C)C` gave an emission maximum (in CC#N) of 460 nm.

Compound `c1cc2c3c(cccc3c1)C(N1CCOCCOCCOCCOCC1)=N2` returned an emission maximum (in CC#N) of 590 nm.

Compound `O=C1CCCC2=C1CC1=C(CCCC1=O)N2NC(=O)c1ccc(O)cc1` displayed an emission maximum (in CC#N) of 434 nm; an emission maximum (in CC(C)=O) of 432 nm; an emission maximum (in CCCCCO) of 447 nm; an emission maximum (in CO) of 449 nm; an emission maximum (in ClC(Cl)Cl) of 444 nm; an emission maximum (in ClCCl) of 436 nm.

On to `Nc1ncc2nc[nH]c2n1`, for which, where the note is “in O”, the emission maximum is 380 nm.

As to `c1ccc(C2(c3ccccc3)c3ccccc3N(c3ccc(-c4nc([C@]56CC7CC(C[C@@H](C7)C5)C6)nc([C@]56C[C@H]7C[C@@H](C[C@H](C7)C5)C6)n4)cc3)c3ccccc32)cc1`, the emission maximum runs as follows: (in CC(C)(C)c1ccc(-n2c3ccc([Si](c4ccccc4)(c4ccccc4)c4ccccc4)cc3c3cc([Si](c4ccccc4)(c4ccccc4)c4ccccc4)ccc32)cc1) 445.29 nm; (in Cc1ccccc1) 451.05 nm.

Consider `CN1CCc2cc(C3=Cc4cccc[n+]4[B-](F)(F)O3)ccc21`, for which the emission maximum (in ClC(Cl)Cl) came out at 515 nm.

Regarding `CCN(CC)c1ccc2nc3c4ccccc4c(=O)cc-3oc2c1`, the emission maximum by setting is: (in C1COCCO1) 582 nm; (in CC#N) 620 nm; (in CC(C)=O) 614 nm; (in CCCCCC) 532 nm; (in CCO) 638 nm; (in CCOC(C)=O) 594 nm. Moreover, the emission maximum runs as follows: (in CO) 643 nm; (in CS(C)=O) 635 nm; (in Cc1ccccc1) 572 nm; (in ClCCl) 608 nm.

In turn, `Clc1ccccc1N1c2sc3ccccc3c2Sc2c1sc1ccccc21` showed an emission maximum (in ClCCl) of 541 nm.

`Cc1ccc(-c2ccccc2)cc1` returned an emission maximum (in C1CCCCC1) of 333.89 nm.

Turning to `CC1=[N+]2C(=C(c3ccc(N(c4ccccc4)c4ccccc4)cc3)c3ccc(C)n3[B-]2(F)F)C=C1c1cc2n(c1)[B-](F)(F)[N+]1=CC=CC1=C2c1c(C)cc(C)cc1C`, the emission maximum reads like this: (in C1CCCCC1) 645 nm; (in CCOC(C)=O) 680 nm.

For the setting “in C1CCOC1”, `COc1ccc(C(=Cc2ccc(C=O)cc2)c2ccc(OC)cc2)cc1` returned an emission maximum of 396 nm.

`Cc1cc(O)c(C(=O)/C=C/c2ccc(Cl)cc2)c(=O)o1` came in with an emission maximum (in CC#N) of 497 nm and an emission maximum (in ClCCl) of 478 nm.

In turn, `C(=C\c1ccc(-c2ccccc2)cc1)/c1ccc(Oc2ccc3ccccc3c2-c2c(Oc3ccc(/C=C/c4ccc(-c5ccccc5)cc4)cc3)ccc3ccccc23)cc1` showed an emission maximum (in ClCCl) of 385 nm.

`N#Cc1nc(N(Cc2ccccc2F)Cc2ccccc2F)c(C#N)nc1N(Cc1ccccc1F)Cc1ccccc1F`: the emission maximum (in ClC(Cl)Cl) is on record as 570 nm.

As to `Cc1cc(C)c(B(c2ccc(N3c4ccccc4Oc4ccccc43)cc2)c2c(C)cc(C)cc2C)c(C)c1`, the emission maximum runs as follows: (in C1CCCCC1) 475.13 nm; (in C1CCOC1) 602.56 nm; (in CN(C)C=O) 665.64 nm; (in Cc1ccccc1) 540 nm; (in ClCCl) 598.46 nm.

Consider `Cc1cc(C)c(B(c2cc3c4c(c(B(c5c(C)cc(C)cc5C)c5c(C)cc(C)cc5C)cc5c4c2CCC5)CCC3)c2c(C)cc(C)cc2C)c(C)c1`, for which the emission maximum (in C1CCOC1) was found to be 464.54 nm, the emission maximum (in CC#N) is 465.9 nm and the emission maximum (in CCCCCC) came out at 456 nm.

Take `CCCCC1(CCCC)c2cc(/C=C/c3ccc(N(c4ccccc4)c4ccccc4)cc3)ccc2-c2cc3c(cc21)-c1ccc(/C=C/c2ccc(N(c4ccccc4)c4ccccc4)cc2)cc1C3(CCCC)CCCC`: for the setting “in Cc1ccccc1”, the emission maximum worked out at 450 nm.

`c1ccc2c(c1)cc(-c1cc(-c3nccs3)nc(-c3nccs3)c1)c1ccccc12`: the emission maximum by setting is: (in CC#N) 403 nm; (in CCCCCC) 361 nm; (in CO) 431 nm; (in ClC(Cl)Cl) 383 nm.

For `ClP1(Cl)=N[P@@](Cl)(Oc2ccc3ccc4cccc5ccc2c3c45)=N[P@@](Cl)(Oc2ccc3ccc4cccc5ccc2c3c45)=N1`, the emission maximum (in ClCCl) was determined as 455 nm.

Turning to `CC1=CC(/C=C/c2ccc(C)cc2)=[N+]2C1=C(c1ccccc1)c1c(C)cc(/C=C/c3ccc(C)cc3)n1[B-]2(F)F`, the emission maximum (in CC1CCCO1) is 645 nm.

For `Cc1cc(-n2c3ccccc3c3cc(C#N)ccc32)ccc1-c1ccc(S(=O)(=O)c2ccccc2)cc1C`, the emission maximum is recorded as 369.19 nm (in C1CCOC1), 369.19 nm (in CC#N), 352 nm (in Cc1ccccc1) and 369.19 nm (in ClCCl).

Regarding `Cn1cc(-c2nc3ccccc3nc2C#Cc2ccccc2)c2ccccc21`, the emission maximum (in ClCCl) is 510 nm.

`c1ccc(-n2c(-c3ccc(-n4c5ccccc5c5ccccc54)cc3)nc3nccnc32)cc1` came in with an emission maximum (in CC#N) of 490 nm.

Under “in Cc1ccccc1”, `CCCCCCCCCC1(CCCCCCCCC)c2cc(C#Cc3ccc(C#Cc4ccc(N(CCCCCC)CCCCCC)cc4)cc3)ccc2-c2ccc(C#Cc3ccc(C#Cc4ccc(N(CCCCCC)CCCCCC)cc4)cc3)cc21` had an emission maximum of 433 nm.

As to `O=c1[nH]c2ccccc2[nH]1`, the emission maximum is, setting by setting: (in C1CCOC1) 315 nm; (in CC#N) 313.01 nm; (in CC(C)=O) 307 nm; (in CCCCCCC) 297 nm; (in CCCCCl) 302 nm; (in CCCCO) 311 nm. In addition, the emission maximum (in CCCO) is 310 nm, the emission maximum (in CCCOCCC) is on record as 310 nm and the emission maximum (in CCO) is given as 310 nm.

As for `CCCCCCCCCCCCN1C(=O)c2ccc3c4ccc5c6c(ccc(c7ccc(c2c37)C1=O)c64)C(=O)N(CCCCCCCCCCCC)C5=O`, the emission maximum (in CN(C)C=O) is listed as 536 nm.

In turn, `O=C(O)CC[N+]1=c2cc3c(cc2CCC1)=Cc1c(c2cc4c5c(c2oc1=O)CCCN5CCC4)O3` came in with an emission maximum (in CC#N) of 683 nm, an emission maximum (in CO) of 679 nm, an emission maximum (in ClCCl) of 675 nm and an emission maximum (in O) of 684 nm.

The compound `CCOC(=O)CCCCCn1c2ccc(N)cc2c(=O)c2cc(N)ccc21` had an emission maximum (in O) of 547 nm.

In the case of `c1ccc(-n2nc(-c3ccc(N4c5ccccc5Sc5ccccc54)cc3)nc2-c2ccccn2)cc1`, the emission maximum (in ClCCl) is given as 468 nm.

For `C1=C2c3cc4ccccc4cc3C3=[N+]2[B-]2(Oc4ccccc43)Oc3ccccc3-c3c4cc5ccccc5cc4c1n32` (stereo not given), the emission maximum (in C1CCOC1) turned out to be 832 nm.

Turning to `COC(=O)c1ccc(/C=C2\N=C(c3ccc([N+](=O)[O-])cc3)NC2=O)cc1`, the emission maximum (in C1COCCO1) was 510 nm.

Turning to `Cc1nc2c(ccc3c2sc(/C=C/c2ccc(N(C)C)cc2)[n+]3C)s1`, the emission maximum (in CO) amounted to 600 nm and the emission maximum (in ClC(Cl)Cl) was found to be 603 nm.

For `CN(C)c1ccc(/C=C/c2cc[n+](C)cc2)cc1`, the emission maximum runs as follows: (in C1CCOC1) 590 nm; (in CC1COC(=O)O1) 600 nm; (in CC#N) 625 nm and 605 nm; (in CC(C)=O) 602 nm; (in CC(C)O) 591 nm; (in CCO) 594 nm. Besides, the emission maximum was 595 nm (in CCOC(C)=O); 596 nm (in CN(C)C=O); 596 nm (in CO); 610 nm (in CS(C)=O); 585 nm (in ClC(Cl)Cl); 608 nm (in ClCCl). For the same compound, the emission maximum (in O) was 624 nm and 597 nm; the emission maximum (in c1ccncc1) is 605 nm.

With `c1ccc(-c2nc3c(ccc4[nH]ccc43)o2)cc1`, the emission maximum was 372 nm (in C1CCCCC1); 409 nm (in C1COCCO1); 427 nm (in CC#N); 437 nm (in CO); 390 nm (in Cc1ccccc1); 459 nm (in O).

`CC(C)(C)c1ccc2c(c1)sc1[n+]2[B-](F)(F)n2c(c3cccc4c(Br)ccc2c43)=N1` returned an emission maximum (in C1CCOC1) of 520 nm; an emission maximum (in CC#N) of 519 nm; an emission maximum (in CCCCCC) of 516 nm; an emission maximum (in Cc1ccccc1) of 524 nm; an emission maximum (in ClCCl) of 552 nm.

`NCCCCCCCCCCCCN1C(=O)c2ccc3c4ccc5c6c(ccc(c7ccc(c2c37)C1=O)c64)C(=O)N(c1ccc(O)cc1)C5=O` displayed an emission maximum (in CN(C)C=O) of 534 nm.

`CCC1(CC)c2cc(-c3ccc4c(c3)C(CC)(CC)c3cc(C(C)(C)C)ccc3-4)ccc2-c2ccc(-c3ccc4c(c3)C(CC)(CC)c3cc(C(C)(C)C)ccc3-4)cc21` showed an emission maximum (in CO) of 385.59 nm.

For `Cc1ccc([B-]2(c3ccc(C)cc3)n3nc(C(F)(F)F)cc3-c3c4ccccc4cc[n+]32)cc1`, the emission maximum (in C1CCCCC1) is 407 nm, the emission maximum (in Cc1ccccc1) was determined as 407 nm and the emission maximum (in ClCCl) is 407 nm.

For the setting “in CC1CCCO1”, `O=S1(=O)c2ccc(-c3ccc4c(c3)c3ccccc3n4-c3ccccc3)cc2C2(c3cc(-c4ccc5c(c4)c4ccccc4n5-c4ccccc4)ccc31)c1cc(-c3ccc4c(c3)c3ccccc3n4-c3ccccc3)ccc1S(=O)(=O)c1ccc(-c3ccc4c(c3)c3ccccc3n4-c3ccccc3)cc12` gave an emission maximum of 413 nm.

Where the note is “in ClCCl”, `CCCCn1c(-c2ccc(-c3nnc(-c4cccs4)o3)cc2)nc2c3ccccc3c3ccccc3c21` displayed an emission maximum of 448 nm.

As for `CC[N+]1(CC)CN2C(C)=CC(C)=C(C(=O)[O-])C2=N1`, the emission maximum by setting is: (in CN(C)C=O) 453 nm; (in O) 449 nm.
